# Molecular target: T1, Gag-Pol polyprotein [588-1027]/[588-1147] (Human immunodeficiency virus 1, UniProt P04585)
# T1 construct: 588-1027; 588-1147
# Test: HIV-1 RT Assay
# Details: pH 7.9
row,Compound,IC50 [µM]
1,COC(=O)CCCC#Cc1cc(C)c(OC)c(C(=O)OC)c1 [methyl 2-methoxy-5-(6-methoxy-6-oxohex-1-yn-1-yl)-3-methylbenzoate],100
2,COC(=O)CCCCC(=O)c1cc(C)c(OC)c(C(=O)OC)c1 [Methyl 6-[4-methoxy-5-(methoxycarbonyl)-3-methylphenyl]-6-oxohexanoate],100
3,COC(=O)CCCC=C(c1ccc(OC)c(Cl)c1)c1ccc(OC)c(Cl)c1 [Alkenyldiarylmethane (ADAM) 9b],100
4,"COC(=O)CCC/C=C(/c1ccc(OC)c(OC)c1)c1cnccn1 [methyl (5Z)-6-(3,4-dimethoxyphenyl)-6-(pyrazin-2-yl)hex-5-enoate]",100
5,COC(=O)CCC/C=C(/c1ccc(OC)c(C(=O)OC)c1)c1cc(Cl)c(OC)c(C(=O)OC)c1 [Alkenyldiarylmethane (ADAM) 5b],0.587
6,COC(=O)CCCC=C(c1ccc(OC)c(C(=O)OC)c1)c1ccc(OC)c(C(=O)OC)c1 [methyl 2-methoxy-5-{6-methoxy-1-[4-methoxy-3-(methoxycarbonyl)phenyl]-6-oxohex-1-en-1-yl}benzoate],0.504
7,COC(=O)CCC/C=C/c1cc(C)c(OC)c(C(=O)OC)c1 [methyl 2-methoxy-5-[(1E)-6-methoxy-6-oxohex-1-en-1-yl]-3-methylbenzoate],100
8,COC(=O)CCCCCc1cc(C)c(OC)c(C(=O)OC)c1 [Methyl 6-[4-methoxy-5-(methoxycarbonyl)-3-methylphenyl]hexanoate],1.75
9,COC(=O)CCC/C=C(/c1cc(C)c(OC)c(C(=O)OC)c1)c1cc(Cl)c(OC)c(C(=O)OC)c1 [Alkenyldiarylmethane (ADAM) 4b],0.516
10,"COC(=O)CCC/C(=C\c1ccc(OC)c(Cl)c1)c1ccc(OC)c(Cl)c1 [methyl (5E)-5,6-bis(3-chloro-4-methoxyphenyl)hex-5-enoate]",100
11,"COC(=O)CCC/C=C(/c1ccc(OC)c(OC)c1)c1cc(C)c(OC)c(C(=O)OC)c1 [Methyl (5Z)-6-(3,4-dimethoxyphenyl)-6-[4-methoxy-3-(methoxycarbonyl)-5-methylphenyl]hex-5-enoate]",0.074
12,COC(=O)CCC/C=C\c1cc(C)c(OC)c(C(=O)OC)c1 [Alkenyldiarylmethane (ADAM) 10b],88.2

# Reference: BindingDB's records for doi:10.1016/s0968-0896(01)00282-6 (Purdue University, 2002)
